# Measured values reported in patent US5124326A, “Pharmaceutically efficacious pteridine derivatives” (Roehm GmbH Chemische Fabrik, priority 1989, dated 1992).
# Where two headings read alike, the source gives them in different places.
# Key:
# [1] = distribution coefficient log P; type: physicochemical; details: for logD: read-out: lipophilicity log P; for logP: from the preparation examples
# [2] = solubility in isotonic phosphate buffer pH 7.4; type: physicochemical; details: for solubility: aqueous buffer
# urine volume, Na^+, K^+ = assay: diuresis test in rats (urine volume, Na+, K+ excretion; dose/response, ED50); type: in vivo, Male Wister rats; details: for Na^+/K^+ quotient i.v. / Na^+/K^+ quotient p.o. / ED50: rats; for ED50: Rattus norvegicus
# Description: The compounds of formula I and their acid addition salts, with physiologically tolerable acids are quite suitable for peroral and intravenous medication. The diuresis tests were conducted according to the following method. Diuresis Tests/Method Male Wister rats, weighing approximately 130 g, were used in the tests. Food had been withdrawn from the rats for 18 hours. Immediately before the intravenous administration of the test substance, they were fed orally a quantity of 20 ml/kg of 0.9% NaCl solution. […] Under a slight anesthesia, administration was by the caudal vein. Generally six experimental animals were used per test. The peroral administration was by means of probang in the gastrointestinal region. The substances were administered in a mixture comprising Tylose® and physiological NaCl solution, which serves simultaneously as the hydration agent ([…]). The animals were placed individually into diuresis cages and urine was collected after 2.5 or 3 or 6 hours. The electrolytes (Na^+ K^+, Mg^+2) were determined by means of flame photometry and by means of atomic absorption measurement with the FL6 automatic electrolyte equipment from Zeiss/Oberkochen. Curves for dose/response correlations were obtained with the aid of non-linear regression analysis with the NONLIN computer program by C. Daniel and F. S. Wood in "Fitting Equations to Data", J. Wiley & Sons, New York, 1980. Thus, the characteristic value ED50 (=potency) applied to determine the diuretic efficacy is defined as the quantity of active substance per kg of body weight, which is necessary for the semi-maximum effect.
# [3] = resorption rate from renal recovery following p.o. and i.v. administration; type: in vivo, Male Wister rats; details: rat, urine, po; quotient of urinary recovery p.o./i.v.; rats
# Description: Male Wister rats, weighing approximately 130 g, were used in the tests. Food had been withdrawn from the rats for 18 hours. Immediately before the intravenous administration of the test substance, they were fed orally a quantity of 20 ml/kg of 0.9% NaCl solution. […] Under a slight anesthesia, administration was by the caudal vein. Generally six experimental animals were used per test. The peroral administration was by means of probang in the gastrointestinal region. The substances were administered in a mixture comprising Tylose® and physiological NaCl solution, which serves simultaneously as the hydration agent ([…]). The animals were placed individually into diuresis cages and urine was collected after 2.5 or 3 or 6 hours. The electrolytes (Na^+ K^+, Mg^+2) were determined by means of flame photometry and by means of atomic absorption measurement with the FL6 automatic electrolyte equipment from Zeiss/Oberkochen. The renal recovery of the test substances serves as a means of measuring resorption following oral administration. The resorption rate is determined from the quotients of the recovery rates following peroral (p.o.) and intravenous (i.v.) administration, as given in percent. The recovery rate notes the renally excreted quantity based on the medicated quantity of the active substances. The concentration of the test substances in the urine of the animals is determined in accordance with thin-layer chromatographic separation by means o spectrophotometry.
# metabolization = details: in vivo
# [4] = isotonic phosphate buffer, pH = 7.4, read-out: solubility
# [5] = iv, duration 2.5 h, read-out: ED50 (potency), urine K^+
# [6] = iv, duration 2.5 h, read-out: ED50 (potency), urine Na^+
# [7] = iv, duration 2.5 h, read-out: ED50 (potency), urine volume
# [8] = iv, duration 6 h, read-out: ED50 (potency), urine K^+
# [9] = iv, duration 6 h, read-out: ED50 (potency), urine Na^+
# [10] = iv, duration 6 h, read-out: ED50 (potency), urine volume
# [11] = po, duration 3 h, read-out: ED50 (potency), urine K^+
# [12] = po, duration 3 h, read-out: ED50 (potency), urine Na^+
# [13] = po, duration 3 h, read-out: ED50 (potency), urine volume
# [14] = po, duration 6 h, read-out: ED50 (potency), urine K^+
# [15] = po, duration 6 h, read-out: ED50 (potency), urine Na^+
# [16] = po, duration 6 h, read-out: ED50 (potency), urine volume
# [17] = isotonic phosphate buffer pH 7.4, read-out: solubility in isotonic phosphate buffer
Compound,logD ([1]; pH = 7.4),"solubility [2, 4] [mg/mL]",Fa [3] [%],"solubility [2, 17] [mg/mL]","Na^+/K^+ quotient i.v. (urine volume, Na^+, K^+)","Na^+/K^+ quotient p.o. (urine volume, Na^+, K^+)","ED50 (urine volume, Na^+, K^+; [5]) [µmol/kg]","ED50 (urine volume, Na^+, K^+; [6]) [µmol/kg]","ED50 (urine volume, Na^+, K^+; [7]) [µmol/kg]","ED50 (urine volume, Na^+, K^+; [8]) [µmol/kg]","ED50 (urine volume, Na^+, K^+; [9]) [µmol/kg]","ED50 (urine volume, Na^+, K^+; [10]) [µmol/kg]",other results
"Nc1nc(N)c2nc(-c3ccc(CN4CCCCC4)cc3)c(N)nc2n1 [compound ID, 2,4,7-Triamino-6-[4-(piperidinomethyl)phenyl]pteridine]",0.2,0.076,19,–,37,7,–,–,–,–,–,–,–
"CC(C)N(Cc1ccccc1)Cc1ccc(-c2nc3c(N)nc(N)nc3nc2N)cc1 [compound IC, 2,4,7-Triamino-6-[4-(N-benzyl-N-isopropylaminomethyl)phenyl]pteridien]",3.2,0.0019,–,–,7,13,–,–,–,–,–,–,metabolization (metabolization): is metabolized quantitatively
"CC1CCN(Cc2ccc(-c3nc4c(N)nc(N)nc4nc3N)cc2)CC1 [compound IE, 2,4,7-Triamino-6-[4-(4-methylpiperidinomethyl)phenyl]pteridine]",0.89,0.139,31,–,27,14,5.4,3.13,2.65,5.9,12.7,8.24,"increased solubility in comparison to Triamterene ([2]; pH 7.4 in phosphate buffer, vs Triamterene): 6.5 fold; ED50 (urine volume, Na^+, K^+; [11]): 2.16 µmol/kg; ED50 (urine volume, Na^+, K^+; [12]): 9.49 µmol/kg; ED50 (urine volume, Na^+, K^+; [13]): 11.8 µmol/kg; ED50 (urine volume, Na^+, K^+; [14]): 2.41 µmol/kg; ED50 (urine volume, Na^+, K^+; [15]): 12.7 µmol/kg; ED50 (urine volume, Na^+, K^+; [16]): 14.8 µmol/kg; potassium-saving potency in comparison to Triamterene (urine volume, Na^+, K^+; following peroral administration, vs Triamterene): higher potassium-saving potency; metabolization (metabolization): No metabolization"
"CN(C)Cc1ccc(-c2nc3c(N)nc(N)nc3nc2N)cc1 [compound IA, 2,4,7-Triamino-6-[4-(dimethylaminomethyl)phenyl]pteridine]",-0.36,0.58,11,–,9,18,–,–,–,–,–,–,–
"Nc1nc(N)c2nc(-c3ccccc3)c(N)nc2n1 [Triamterene, 2,4,7-triamino-6-phenylpteridine, reference compound]",–,0.021,~80,–,8,6,11.2,2.38,13.9,9.79,10.6,10.6,"lipophilicity log P ([1]; pH = 7.4): 1.26; ED50 (urine volume, Na^+, K^+; [11]): 3.38 µmol/kg; ED50 (urine volume, Na^+, K^+; [12]): 6.17 µmol/kg; ED50 (urine volume, Na^+, K^+; [13]): 6.4 µmol/kg; ED50 (urine volume, Na^+, K^+; [14]): 8.39 µmol/kg; ED50 (urine volume, Na^+, K^+; [15]): 5.06 µmol/kg; ED50 (urine volume, Na^+, K^+; [16]): 6.57 µmol/kg"
"Nc1nc(N)c2nc(-c3ccc(CN4CCC(Cc5ccccc5)CC4)cc3)c(N)nc2n1 [compound IB, 2,4,7-Triamino-6-[4-(4-benzylpiperidinomethyl)phenyl]pteridine]",2.7,–,< 1,0.0011,17,4,–,–,–,–,–,–,–
"CC1CCCC(C)N1Cc1ccc(-c2nc3c(N)nc(N)nc3nc2N)cc1 (stereo not drawn) [compound IF, 2,4,7-Triamino-6-[4-(2,6-dimethylpiperidinomehyl)phenyl]pteridine]",0.68,0.025,33,–,21,15,–,–,–,–,–,–,–

# More lines, main results first:
logD ([1]; pH = 7.4),"solubility [2, 4] [mg/mL]",Fa [3] [%],"solubility [2, 17] [mg/mL]",Compound,"Na^+/K^+ quotient i.v. (urine volume, Na^+, K^+)","Na^+/K^+ quotient p.o. (urine volume, Na^+, K^+)","ED50 (urine volume, Na^+, K^+; [5]) [µmol/kg]","ED50 (urine volume, Na^+, K^+; [6]) [µmol/kg]","ED50 (urine volume, Na^+, K^+; [7]) [µmol/kg]","ED50 (urine volume, Na^+, K^+; [8]) [µmol/kg]","ED50 (urine volume, Na^+, K^+; [9]) [µmol/kg]","ED50 (urine volume, Na^+, K^+; [10]) [µmol/kg]",other results
0.04,1.5,3,–,"CC1CCCC(C)N1CCCc1ccc(-c2nc3c(N)nc(N)nc3nc2N)cc1 (stereo not drawn) [compound IL, 2,4,7-Triamino-6-[4-(3-(2,6-dimethylpiperidino)propyl)phenyl]pteridine]",170,8,–,–,–,–,–,–,–
-0.6,–,3,2,"CN(C)CCCc1ccc(-c2nc3c(N)nc(N)nc3nc2N)cc1 [compound IH, 2,4,7-Triamino-6-[40(3-dimethylaminopropyl)phenyl]pteridine]",12,7,1.41,1.44,1.23,1.3,1.83,1.7,logP [1]: -0.6
1.18,–,7,0.135,"CC1CC(C)CN(CCCc2ccc(-c3nc4c(N)nc(N)nc4nc3N)cc2)C1 (stereo not drawn) [compound IM, 2,4,7-Triamino-6-[4-(3-(3,5-dimethylpiperidino)propyl)phenyl]pteridine]",128,27,–,–,–,–,–,–,logP [1]: 1.18
1.74,0.013,23,–,"CC1CC(C)CN(Cc2ccc(-c3nc4c(N)nc(N)nc4nc3N)cc2)C1 (stereo not drawn) [compound IG, 2,4,7-Triamino-6-[4-(3,5-dimethylpiperidinomethyl)phenyl]pteridine]",39,7,–,–,–,–,–,–,–
-0.59,–,4,2.2,"CN(C)CCc1ccc(-c2nc3c(N)nc(N)nc3nc2N)cc1 [compound IJ, 2,4,7-Triamino-6-[4-(2-dimethylaminoethyl)phenyl]pteridine]",10,6,1.04,1.63,2.36,2.6,1.64,2.61,logP [1]: -0.59
